For assay [1], the target named is T1, catalytic domain of human SHP2 (Homo sapiens, UniProt Q06124).
T1 construct: catalytic domain of human SHP2 (amino acids 225–541); His10 (N); made in house; host or cells: E. coli B21 (DE3)
T1 sequence (Q06124 225-541): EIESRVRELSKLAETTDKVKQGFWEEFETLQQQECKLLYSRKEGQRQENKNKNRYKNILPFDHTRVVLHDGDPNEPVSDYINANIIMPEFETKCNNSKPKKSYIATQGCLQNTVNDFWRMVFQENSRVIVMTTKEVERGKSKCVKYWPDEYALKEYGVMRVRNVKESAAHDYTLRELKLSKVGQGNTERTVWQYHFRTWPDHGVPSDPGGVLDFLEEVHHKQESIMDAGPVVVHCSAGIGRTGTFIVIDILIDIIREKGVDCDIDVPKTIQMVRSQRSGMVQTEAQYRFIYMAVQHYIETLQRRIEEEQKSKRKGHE
As to the kind of experiment: Enzyme activity assay of SHP2 catalytic domain with fluorogenic substrate DiFMUP. It is filed as biochemical.
Description: Enzyme activity assays of SHP2 and PTP1B: The catalytic activity of SHP2 catalytic domain and PTP1B were monitored using the fluorogenic substrate DiFMUP (6,8‐difluoro‐4‐methylumbelliferyl phosphate). Phosphatase reactions were performed at room temperature in 384‐well black plate, clear flat bottom, low flange, non‐binding surface (Corning, Cat# 3766) using a final volume of 20 μL and the following assay buffer conditions: 50 mM MOPS, pH=6.5, 200 mM NaCl, 50 μM TCEP, 0.03 % Tween‐20 (freshly added prior to each measurement). Test compounds were dissolved in DMSO or buffer at stock concentrations of 50, 20 or 10 mM and serially diluted. Enzyme (5 nM PTP1B or 2.5 nM SHP2 catalytic domain) and different concentrations of the tested compounds were incubated in buffer for 30–60 min at room temperature. […] Enzymatic reactions were started by adding DiFMUP (Invitrogen, cat# D6567) concentrations matching the experimentally determined KM values of the enzymes of 67 μM (PTP1B) or 72 μM (SHP2). Samples were excited at a wavelength of 360 nm and emitted fluorescence was recorded at 460 for 10 min using a microplate reader (infinite M1000 Pro, Tecan). Initial slope of fluorescence was determined in triplicate and IC50 values were calculated with GraphPad Prism 5. Determined IC50 values were converted into the corresponding KI values applying the Cheng Prusoff equation KI =IC50 /(1+[S]/KM ).

The target of assay [2] is T2, SHP2 (Homo sapiens, UniProt Q06124).
T2 construct: catalytic domain of human SHP2 (amino acids 225–541); His10 (N); made in house; host or cells: E. coli B21 (DE3)
T2 sequence (Q06124 225-541): T1 sequence (Q06124 225-541)
Briefly: Determination of KI using Michaelis-Menten kinetics. It is filed as biochemical. How it is done: (§1) Enzyme activity assays of SHP2 and PTP1B: The catalytic activity of SHP2 catalytic domain and PTP1B were monitored using the fluorogenic substrate DiFMUP (6,8‐difluoro‐4‐methylumbelliferyl phosphate). Phosphatase reactions were performed at room temperature in 384‐well black plate, clear flat bottom, low flange, non‐binding surface (Corning, Cat# 3766) using a final volume of 20 μL and the following assay buffer conditions: 50 mM MOPS, pH=6.5, 200 mM NaCl, 50 μM TCEP, 0.03 % Tween‐20 (freshly added prior to each measurement). Test compounds were dissolved in DMSO or buffer at stock concentrations of 50, 20 or 10 mM and serially diluted. Enzyme (5 nM PTP1B or 2.5 nM SHP2 catalytic domain) and different concentrations of the tested compounds were incubated in buffer for 30–60 min at room temperature. Measurements were performed with a final concentration of 2.5 % DMSO unless stated otherwise at 37 °C and were performed in triplicate. Enzymatic reactions were started by adding DiFMUP (Invitrogen, cat# D6567) concentrations matching the experimentally determined KM values of the enzymes of 67 μM (PTP1B) or 72 μM (SHP2). Samples were excited at a wavelength of 360 nm and emitted fluorescence was recorded at 460 for 10 min using a microplate reader (infinite M1000 Pro, Tecan). Initial slope of fluorescence was determined in triplicate and IC50 values were calculated with GraphPad Prism 5. Determined IC50 values were converted into the corresponding KI values applying the Cheng Prusoff equation KI =IC50 /(1+[S]/KM ).
Determination of KI values using Michaelis-Menten kinetics
The assays for the determination of KI values were performed as described under the same conditions as mentioned in the main paper. The initial velocities of the enzymatic reaction inhibited by compound 21 were determined using four different inhibitor concentrations (0, 75, 100 and 150 nM) and four different substrate concentrations (100, 50, 25 and 12.5 µM).
Fluorescence was monitored over 10 min, during which the increase in fluorescence was linear. Initial velocities were calculated and were plotted as a function of the substrate concentration. The inhibition constant KI was determined using Michaelis-Menten kinetics applying GraphPad Prism 9 (Supplementary Figure 31). The obtained data were fitted to three different inhibition models, namely competitive, uncompetitive, and non-competitive inhibition.
The best fit was obtained for the competitive inhibition mode, resulting in the highest correlation […]
Supplementary Figure 31. Michaelis-Menten plots of compound 21 using inhibitor […]
Table 2. Results of Michaelis-Menten plots for different modes of inhibition of compound 21 (competitive, uncompetitive and non-competitive inhibition).
Inhibition model Competitive Uncompetitive Non-competitive
(1 picture or pasted object on this page, not shown here)

The subject of assay [3] is HGF‐induced tyrosine phosphorylation of ERK 1/2 in HeLa cells. As to the kind of experiment: Western blot of p-ERK in HGF-stimulated HeLa cells. It is filed as cell-based. Particulars: 1 h treatment. Here is the method:
Cellular experiments: HeLa cells were cultivated in DMEM buffer with 10 % FCS in 75 cm^2 cell culture flasks at 37 °C, 5 % CO2. At confluency of about 75 %, cells were seeded in a density of 250,000 cells/mL in 6‐well plates and incubated for 24 h. Subsequently, medium was removed and replaced by DMEM buffer with 0.1 % BSA (1 mL per well) and incubated for another 16 h. Hepatocyte growth factor (HGF, 20 ng/well) and test compounds in different final concentrations (1 μL, in DMSO) were added. Control wells received the same amount of DMSO (final concentration 0.1 %) or no addition. Plates were incubated for 1 h, then washed with cold PBS and shaken with lysis buffer (mPer reagent ThermoScientific # 78501 with 1 mM NaF, 2 mM Na3VO4, 25× protease inhibitor) for 5 min. Cell lysates were transferred to Eppendorf cups and centrifuged at 4 °C with 10,000 g for 10 min. […] The blot was incubated with anti‐phospo‐ERK as primary antibody (Cell Signaling # 9106, dilution 1 : 2000 in TBS‐Tween/ 2 % BSA) overnight at 4 °C, washed 3×5 min with TBS‐Tween, and incubated with anti‐mouse IgG‐hrp as secondary antibody (Santa Cruz # sc2031, 1 : 6000 in TBS‐ Tween/ 2 % BSA, RT, 1.5 h). The blot was again washed 3×5 min with TBS‐Tween and imaged with the ECL system (ThermoScientific # 34080) at Syngene PXi Imager. From the same lysis sample, under the same conditions, ERK 1/2 and β‐tubulin were blotted. For β‐tubulin, the antibody incubation time was adjusted to 2 h at RT.

The target in assay [4] is T3, PTP1B (Homo sapiens, UniProt P18031).
T3 construct: catalytic domain of human PTP1B (amino acids 1–321); His7 (N, cleaved yes); made in house; host or cells: E. coli Rosetta (DE3)
T3 sequence (P18031 1-321): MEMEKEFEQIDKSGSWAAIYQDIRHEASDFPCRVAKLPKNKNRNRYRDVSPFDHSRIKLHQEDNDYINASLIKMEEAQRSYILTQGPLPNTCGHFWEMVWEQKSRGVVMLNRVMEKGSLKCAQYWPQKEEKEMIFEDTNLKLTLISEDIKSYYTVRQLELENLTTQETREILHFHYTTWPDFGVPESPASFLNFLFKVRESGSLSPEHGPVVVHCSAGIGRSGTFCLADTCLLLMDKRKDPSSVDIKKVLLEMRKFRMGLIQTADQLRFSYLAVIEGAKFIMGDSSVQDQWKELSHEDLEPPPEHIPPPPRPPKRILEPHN
Briefly: Dynamic ligation screening of nucleophilic fragments with formylglycine peptide 3, PTP1B. Type of assay: biochemical. To be noted: 3 100 μM pre-incubated 5 min, fragment 200 μM, 30 min RT before DiFMUP, triplicates. Here is the method: as §1
(§2) Dynamic ligation screening of nucleophilic fragments with 3: Under assay conditions described above, PTP1B or SHP2 were pre‐incubated with 3 (100 μM) for 5 min. Subsequently, (200 μM) of the respective fragments were added and the resulting mixtures were incubated for 30 min at RT, prior to DiFMUP addition.

Assay [5] addresses T2, SHP2. Briefly: Dynamic ligation screening of nucleophilic fragments with formylglycine peptide 3, SHP2. It is filed as biochemical. To be noted: 3 100 μM pre-incubated 5 min, fragment 200 μM, 30 min RT before DiFMUP, triplicates. Here is the method:
as §1, §2

Assay [6] concerns the target T3, PTP1B. As to the kind of experiment: Apparent KI values of in situ ligation products of 3 (time- and concentration-dependent assay). It is filed as biochemical. To be noted: for Effect of fragment ligation with 3 on inhibition curves of PTP1B: inhibition at different concentrations, with and without 3 / fragment (Figure 5C, D). Here is the method:
as §1
Subsequently, over the course of 60 mins (every 15 min), 2 equivalents of fragment F1 were added to each of the different concentrations of 3 at RT, prior to DiFMUP addition.
Subsequently, fragment F2 was added at three different concentrations (1 equiv, 2 equiv, and 4 equiv) and the resulting mixtures were incubated for 30 min at RT, prior to DiFMUP addition.

The target in assay [7] is T4, catalytic domain of human PTP1B (Homo sapiens, UniProt P18031).
T4 construct: catalytic domain of human PTP1B (amino acids 1–321); His7 (N, cleaved yes); made in house; host or cells: E. coli Rosetta (DE3)
T4 sequence (P18031 1-321): T3 sequence (P18031 1-321)
As to the kind of experiment: Enzyme activity assay of PTP1B with fluorogenic substrate DiFMUP. Type of assay: biochemical. How it is done: Protein Expression and purification: DNA encoding the catalytic domain of human PTP1B (amino acids 1–321) was subcloned into the pQLinkH vector. The gene encoding the N‐terminal His7‐tagged protein was over‐expressed at 17 °C in E. coli Rosetta (DE3). […] The His7‐tag was cleaved with tobacco etch virus protease at 20 °C prior to the gel‐filtration step. The catalytic domain of human SHP2 (amino acids 225–541) was purified from E. coli B21 (DE3). The overexpressed protein was fused to an N‐terminal His10‐tag. Cells were harvested and resuspended in 25 mM Tris‐HCl (pH=7.5), 50 mM NaCl, 1 % (v/v) Triton X‐100, 10 % (v/v) glycerol, 1 mM DTT. After cell lysis, debris was removed by centrifugation at 12,000 rpm for 30 min. The supernatant was filtered prior to affinity purification with Ni‐NTA agarose (Qiagen). The slurry was washed with 50 mM Tris‐HCl (pH=8.0), 500 mM NaCl supplemented with 25 mM imidazole. Reasonably pure protein was eluted with 200–300 mM imidazole. The purification was completed by size‐exclusion chromatography with a Superdex 75 16/600 column (GE Healthcare) equilibrated with 20 mM HEPES‐NaOH (pH=7.5), 50 mM NaCl, 1 mM DTT.
as §1

Setting [8] is: hydrazine fragments alone, DiFMUP assay, Supporting Table 1.

The structures appear in SMILES notation. Entries after “also recorded” stand apart in the source; their conditions may differ. Where two headings read alike, the source gives them in different places.

For `O=C(O)Cc1ccc(N/N=C2\C(=O)N(c3ccc([N+](=O)[O-])cc3)N=C2c2ccc([N+](=O)[O-])cc2)cc1` [Compound 21, (Z)‐2‐(4‐(2‐(1,3‐Bis‐(4‐nitrophenyl)‐5‐oxo‐1,5‐dihydro‐4H‐pyrazol‐4‐ylidene)‐hydrazinyl)‐phenyl)‐acetic acid], the Ki in assay [1] (DiFMUP 72 μM (= KM), enzyme 1.5 nM, triplicate, from IC50 by Cheng-Prusoff (IC50/2), read-out: KI SHP2 (Table 2, footnote a)) was 79 nM; at SHP2 [2] (Michaelis-Menten kinetics at different substrate concentrations, competitive model, read-out: KI SHP2 (Table 2, footnote b) (converted)), 32 nM; on SHP2 [2] (inhibitor 0, 75, 100, 150 nM, DiFMUP 100, 50, 25, 12.5 µM, R2 0.8991, read-out: KI by Michaelis-Menten kinetics, non-competitive model) it was 46.5 nM; on SHP2 [2] (inhibitor 0, 75, 100, 150 nM, DiFMUP 100, 50, 25, 12.5 µM, best fit, R2 0.9007, read-out: KI by Michaelis-Menten kinetics, competitive model), 32 nM. Moreover, on SHP2 [2] (best fit among competitive, uncompetitive, non-competitive models), the “Mode of inhibition of SHP2” value is given as “competitive inhibitor; also recorded: competitive mode of inhibition”. On SHP2 [2] (inhibitor 0, 75, 100, 150 nM, DiFMUP 100, 50, 25, 12.5 µM, R2 0.8637), the “KI by Michaelis-Menten kinetics, uncompetitive model” value worked out at 8.4 nM. The “Effect on HGF‐induced tyrosine phosphorylation of ERK 1/2” value in assay [3] (Western blot, DMSO control) is on record as “decreased”. For the same compound, in assay [3] (HGF 20 ng/well, Western blot p-ERK), the “Concentration giving (complete) dephosphorylation of Erk / inhibition of Erk phosphorylation” value was found to be 6.25 µM.
Regarding `Nc1ccc(CC(=O)O)cc1` [Compound F1, 4‐amino‐phenyl‐acetic acid], the “Enhancement of inhibition of PTP1B by fragment in combination with peptide 3 (fragment ligation assay)” value (“Enhancement of inhibition of PTP1B” for short) at PTP1B [4] is on record as “over‐additive inhibition; also recorded: super‐additive inhibition”. For the same compound, the “Enhancement of inhibition of SHP2 by fragment in combination with peptide 3 (fragment ligation assay)” value (from here on “Enhancement of inhibition of SHP2”) at SHP2 [5] was “over‐additive inhibition; also recorded: super‐additive inhibition”.
As to `Nc1ccc(NS(=O)(=O)C(F)(F)F)cc1` [Compound F2, N‐(4‐aminophenyl)‐trifluoromethyl sulfonamide], the “Enhancement of inhibition of PTP1B” value at PTP1B [4] was “over‐additive inhibition; also recorded: pronounced activity; also recorded: super‐additive inhibition”. Moreover, the Ki on PTP1B [6] (PTP1B, ligation product of F2 with 3, read-out: apparent KI of fragment ligation product with 3 (legend of Figure 5B)) stood at 17000 nM. Besides, the “Enhancement of inhibition of SHP2” value on SHP2 [5] is reported as “over‐additive inhibition; also recorded: super‐additive inhibition”.
On to `NNc1ccc(S(=O)(=O)O)cc1` [Compound F3, 4‐hydrazo‐phenylsulfonic acid], for which the IC50 was more than 250000 nM in assay [1] (setting [8]) and 34000 nM in assay [7] (setting [8]). The “Effect of fragment ligation with 3 on inhibition curves of PTP1B” value on PTP1B [6] is recorded as “did not enforce inhibition of PTP1B further”. For the same compound, in assay [7] (read-out: KI PTP1B), the Ki was 17000 nM.
For the compound `Nc1ccc(OCC(=O)O)cc1` [Compound F4, 4‐amino‐phenoxyacetic acid], the “Enhancement of inhibition of PTP1B” value at PTP1B [4] is recorded as “over‐additive inhibition; also recorded: super‐additive inhibition”. In addition, the “Enhancement of inhibition of SHP2” value at SHP2 [5] is listed as “over‐additive inhibition; also recorded: super‐additive inhibition”.
Consider `Nc1ccc(S(F)(F)(F)(F)F)cc1` [Compound F7, 4‐amino‐phenyl‐pentafluorosulfate], for which the “Enhancement of inhibition of PTP1B” value on PTP1B [4] was “inactive”. For the same compound, the “Effect of fragment ligation with 3 on inhibition curves of PTP1B” value at PTP1B [6] is on record as “identical inhibition curves”.

Source of the values: PMC9804470, “A Formylglycine‐Peptide for the Site‐Directed Identification of Phosphotyrosine‐Mimetic Fragments” (Chemistry (Weinheim an Der Bergstrasse, Germany), 2022).
